Measurements as given in PMC12155096 (International Journal of Molecular Sciences, 2025).
Structures can show the parent of a compound that is named as a salt. Where two headings read alike, the source gives them in different places.

Columns and labels:
[1] = molecular target: human CYP2D6 (Homo sapiens, UniProt P10635); test: biochemical
[2] = molecular target: T1, human CYP2C9 (Homo sapiens, UniProt P11712); test: biochemical
[3] = molecular target: CYP3A4 (Homo sapiens, UniProt P08684); test: biochemical
Chain of CYP3A4 (P08684 whole entry): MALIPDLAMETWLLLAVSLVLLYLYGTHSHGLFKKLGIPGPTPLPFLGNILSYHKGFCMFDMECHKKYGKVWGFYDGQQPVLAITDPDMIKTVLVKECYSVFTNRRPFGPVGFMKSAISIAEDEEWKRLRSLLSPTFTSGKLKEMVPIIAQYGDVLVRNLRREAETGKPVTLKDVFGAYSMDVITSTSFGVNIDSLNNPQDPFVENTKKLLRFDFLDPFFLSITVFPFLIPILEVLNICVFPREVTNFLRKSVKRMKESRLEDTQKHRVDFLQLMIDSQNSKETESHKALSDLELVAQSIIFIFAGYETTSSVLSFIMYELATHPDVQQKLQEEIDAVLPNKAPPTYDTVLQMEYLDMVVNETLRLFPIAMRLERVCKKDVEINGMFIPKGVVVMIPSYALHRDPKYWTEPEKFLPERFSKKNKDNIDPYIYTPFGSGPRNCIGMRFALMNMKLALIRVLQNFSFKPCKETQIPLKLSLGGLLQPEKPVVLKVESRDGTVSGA

[4] = molecular target: T2, human CYP1A2 (Homo sapiens, UniProt P05177); test: biochemical
T2 sequence (P05177 1-516): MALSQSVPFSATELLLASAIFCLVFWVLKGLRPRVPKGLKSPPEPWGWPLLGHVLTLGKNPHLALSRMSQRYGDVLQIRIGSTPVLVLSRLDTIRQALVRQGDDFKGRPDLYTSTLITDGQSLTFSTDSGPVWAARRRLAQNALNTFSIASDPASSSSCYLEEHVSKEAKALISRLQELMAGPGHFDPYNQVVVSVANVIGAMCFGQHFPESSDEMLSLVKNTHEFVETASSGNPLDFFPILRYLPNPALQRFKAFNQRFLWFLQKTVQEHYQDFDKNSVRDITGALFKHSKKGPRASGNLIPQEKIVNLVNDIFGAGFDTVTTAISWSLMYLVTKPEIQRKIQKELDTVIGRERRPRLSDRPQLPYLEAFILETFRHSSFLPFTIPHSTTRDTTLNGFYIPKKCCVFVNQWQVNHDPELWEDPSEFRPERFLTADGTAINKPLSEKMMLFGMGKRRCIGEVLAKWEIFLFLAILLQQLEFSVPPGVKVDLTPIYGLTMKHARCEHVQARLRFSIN

[5] = molecular target: T3, human CYP2C19 (Homo sapiens, UniProt P33261); test: biochemical
T3 sequence (P33261 whole entry): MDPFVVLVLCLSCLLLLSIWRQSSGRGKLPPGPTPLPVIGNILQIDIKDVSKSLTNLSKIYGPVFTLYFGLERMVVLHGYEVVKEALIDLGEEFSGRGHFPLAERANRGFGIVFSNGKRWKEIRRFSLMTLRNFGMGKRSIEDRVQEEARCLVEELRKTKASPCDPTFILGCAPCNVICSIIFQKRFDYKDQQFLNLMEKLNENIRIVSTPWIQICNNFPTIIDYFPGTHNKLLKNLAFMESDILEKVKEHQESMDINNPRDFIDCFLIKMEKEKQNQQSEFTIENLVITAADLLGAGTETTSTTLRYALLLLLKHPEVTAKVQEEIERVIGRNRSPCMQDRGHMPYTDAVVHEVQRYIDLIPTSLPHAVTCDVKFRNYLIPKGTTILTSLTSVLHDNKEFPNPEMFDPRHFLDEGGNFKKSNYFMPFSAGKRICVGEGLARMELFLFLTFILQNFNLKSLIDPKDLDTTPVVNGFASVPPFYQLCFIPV

[6] = molecular target: T3, human CYP2C19
[7] = molecular target: T2, human CYP1A2
[8] = molecular target: T1, human CYP2C9
[9] = CYP2D6 AC50 (half-maximal activity concentration)
[10] = CYP2C9 AC50 (half-maximal activity concentration)
[11] = CYP3A4 AC50 (half-maximal activity concentration)
[12] = CYP1A2 AC50 (half-maximal activity concentration)
[13] = CYP2C19 AC50 (half-maximal activity concentration)

Chain of human CYP2D6 (P10635 whole entry): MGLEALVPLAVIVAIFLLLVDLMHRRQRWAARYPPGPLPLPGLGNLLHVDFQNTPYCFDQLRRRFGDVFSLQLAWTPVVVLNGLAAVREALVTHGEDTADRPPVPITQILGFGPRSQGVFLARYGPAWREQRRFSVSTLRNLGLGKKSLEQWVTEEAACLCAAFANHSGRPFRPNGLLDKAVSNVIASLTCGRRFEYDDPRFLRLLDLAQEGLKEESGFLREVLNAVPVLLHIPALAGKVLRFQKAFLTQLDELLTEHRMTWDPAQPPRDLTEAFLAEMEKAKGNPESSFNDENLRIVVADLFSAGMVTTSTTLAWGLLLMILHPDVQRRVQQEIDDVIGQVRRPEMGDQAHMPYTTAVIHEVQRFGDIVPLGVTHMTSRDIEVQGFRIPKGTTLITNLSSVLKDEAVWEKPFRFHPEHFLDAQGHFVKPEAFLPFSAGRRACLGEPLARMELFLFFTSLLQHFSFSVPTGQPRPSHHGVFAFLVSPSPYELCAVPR
T1 sequence (P11712 whole entry): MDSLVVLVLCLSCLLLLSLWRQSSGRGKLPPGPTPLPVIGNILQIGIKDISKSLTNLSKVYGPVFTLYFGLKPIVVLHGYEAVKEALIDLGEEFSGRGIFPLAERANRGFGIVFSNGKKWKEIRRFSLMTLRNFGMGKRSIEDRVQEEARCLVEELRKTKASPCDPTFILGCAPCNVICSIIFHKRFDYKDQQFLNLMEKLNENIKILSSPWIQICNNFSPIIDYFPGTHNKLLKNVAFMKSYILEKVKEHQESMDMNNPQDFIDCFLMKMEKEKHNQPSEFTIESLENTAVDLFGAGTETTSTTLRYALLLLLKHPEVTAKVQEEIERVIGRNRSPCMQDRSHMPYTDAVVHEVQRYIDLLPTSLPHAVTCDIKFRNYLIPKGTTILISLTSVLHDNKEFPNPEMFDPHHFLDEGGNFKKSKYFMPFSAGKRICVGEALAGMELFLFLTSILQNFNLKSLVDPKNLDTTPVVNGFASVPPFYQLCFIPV

Structure (SMILES) | AC50 [1, 9] | AC50 [2, 10] | AC50 [3, 11] | AC50 [4, 12] | AC50 [5, 13] | CYP1A2 AC50 (half-maximal activity concentration) [7] | also measured
O=C(C(=O)c1ccccc1)c1ccccc1 [1,2-Diphenylethanedione] | 29.4 µM | 1.13 µM | 35.4 µM | 12.1 µM | 14.8 µM | – | –
O=C(Cl)c1cccc(C(=O)Cl)c1 [1,3-Benzenedicarbonyl dichloride] | 24.9 µM | 68.7 µM | 26.8 µM | – | – | Inactive | CYP2C19 AC50 (half-maximal activity concentration) [6]: Inactive
ClC(Cl)(Cl)c1ccc(C(Cl)(Cl)Cl)cc1 [1,4-Bis(trichloromethyl)benzene] | 58.6 µM | 34.2 µM | 45.9 µM | 5.66 µM | – | – | CYP2C19 AC50 (half-maximal activity concentration) [6]: Inconclusive inhibitor
Oc1c(Br)cc(Br)cc1Br [2,4,6-Tribromophenol] | 68.4 µM | 38.5 µM | 72.8 µM | 51.7 µM | – | – | CYP2C19 AC50 (half-maximal activity concentration) [6]: Inconclusive inhibitor
Oc1c(I)cc(I)cc1I [2,4,6-Triiodophenol] | 80.7 µM | 41.2 µM | 63.5 µM | 37.2 µM | 61.9 µM | – | –
O=C(O)c1cc(Cl)cc(Cl)c1 [3,5-Dichlorobenzoic acid] | 27.8 µM | 58.9 µM | 55.5 µM | 57.8 µM | – | – | CYP2C19 AC50 (half-maximal activity concentration) [6]: Inconclusive inhibitor
Cc1ccc(C(=O)c2ccccc2)cc1 [4-Methylbenzophenone] | 46.2 µM | 34.3 µM | 16 µM | 34.3 µM | 13.3 µM | – | –
O=C(CCCN1CCN(c2ccccn2)CC1)c1ccc(F)cc1 [Azaperone] | 12.4 µM | 5.25 µM | 5.97 µM | – | 32.7 µM | Inactive | –
O=C(c1ccccc1)C(O)c1ccccc1 (stereo not shown) [Benzoin] | 36.7 µM | 2.27 µM | 22.8 µM | 22.6 µM | 15.8 µM | – | –
c1ccc(CSCc2ccccc2)cc1 [Benzyl sulfide] | 61.9 µM | 29.8 µM | 7.5 µM | 27.3 µM | 5.94 µM | – | –
O=c1[nH]c2ccc([S+]([O-])CCN3CCC(Cc4ccc(F)cc4)CC3)cc2o1 (stereo not shown) [Besonprodil] | 33 µM | 6.44 µM | 21.5 µM | – | 50.9 µM | Inactive | –
COC(=O)c1cc(Oc2ccc(Cl)cc2Cl)ccc1[N+](=O)[O-] [Bifenox] | 25.3 µM | 7.1 µM | 5.23 µM | 20.4 µM | 2.45 µM | – | –
CCCCC(CC)COP(=O)(O)OCC(CC)CCCC (stereo not shown) [Bis(2-ethylhexyl) phosphate] | 56.6 µM | 16.5 µM | 37.6 µM | 82.9 µM | 40.6 µM | – | –
O=C1C=CC(=O)N1c1ccc(Cc2ccc(N3C(=O)C=CC3=O)cc2)cc1 [Bismaleimide] | 43.6 µM | 4.93 µM | 56.6 µM | 23.9 µM | 8.29 µM | – | –
CCCCCCCC(=O)Oc1c(Br)cc(C#N)cc1Br [Bromoxynil octanoate] | 85.8 µM | 34.5 µM | 15.4 µM | 15 µM | 32.5 µM | – | –
C#CC(C)N(C)C(=O)Nc1ccc(Cl)cc1 (stereo not shown) [Buturon] | 55.3 µM | 22.8 µM | 9.33 µM | 5.47 µM | 8.68 µM | – | –
CC1(C)C(C=C(Cl)Cl)C1C(=O)OC(C#N)c1ccc(F)c(Oc2ccccc2)c1 (stereo not shown) [Cyfluthrin] | 22.2 µM | 3.92 µM | 4.01 µM | – | 10.4 µM | Inactive | –
CCOP(=O)(Sc1ccccc1)Sc1ccccc1 [Edifenphos] | 42.7 µM | 29.7 µM | 8.65 µM | 13 µM | 8.61 µM | – | –
CCOc1ccc(C(C)(C)COCc2cccc(Oc3ccccc3)c2)cc1 [Etofenprox] | 34.3 µM | 7.13 µM | 35.7 µM | – | 16.4 µM | Inconclusive inhibitor | –

Structure (SMILES) | AC50 [1, 9] | AC50 [2, 10] | AC50 [3, 11] | AC50 [4, 12] | AC50 [5, 13] | CYP1A2 AC50 (half-maximal activity concentration) [7] | also measured
CCOC(=O)c1nc(C(Cl)(Cl)Cl)n(-c2ccc(Cl)cc2Cl)n1 [Fenchlorazole-ethyl] | 13.1 µM | 3.92 µM | 3.26 µM | – | 7.02 µM | Inactive | –
CCOC(=O)[C@@H](C)Oc1ccc(Oc2nc3ccc(Cl)cc3o2)cc1 [Fenoxaprop-P-ethyl] | 47.5 µM | 55 µM | 47.6 µM | 23.8 µM | 62.1 µM | – | –
CC(C)C(O)(c1ccc(OC(F)(F)F)cc1)c1cncnc1 (stereo not shown) [Flurprimidol] | – | – | – | – | – | – | IC50 ([1]; CYP2D6 IC50 (half-maximal inhibitory concentration)): 10.3 µM; IC50 ([3]; CYP3A4 IC50 (half-maximal inhibitory concentration)): 0.54 µM; IC50 ([4]; CYP1A2 IC50 (half-maximal inhibitory concentration)): 63.3 µM; IC50 ([5]; CYP2C19 IC50 (half-maximal inhibitory concentration)): 2.67 µM
COC(=O)C(C)Oc1ccc(Oc2ncc(C(F)(F)F)cc2Cl)cc1 (stereo not shown) [Haloxyfop-methyl] | – | – | – | – | – | – | AC50 [1]: 46.8 µM; AC50 [2]: 5.74 µM; AC50 [3]: 27.8 µM; AC50 [4]: 46.8 µM; AC50 [5]: 50.9 µM
O=C(NC1CCN(CCc2c[nH]c3ccccc23)CC1)c1ccccc1 [Indoramin hydrochloride] | 4.31 µM | – | 15.6 µM | – | – | Inactive | CYP2C9 AC50 (half-maximal activity concentration) [8]: Inactive; CYP2C19 AC50 (half-maximal activity concentration) [6]: Inactive
Cc1cccc(C)c1NC(=O)CN1CCN(CCCC(c2ccc(F)cc2)c2ccc(F)cc2)CC1 [Lidoflazine] | 5.18 µM | 21.3 µM | 2.26 µM | – | 36.7 µM | Inactive | –
CC[N+](C)(CC)CCOC(=O)C1c2ccccc2Oc2ccccc21 [Methantheline bromide] | 3.29 µM | – | 15.6 µM | – | – | Inconclusive inhibitor | CYP2C9 AC50 (half-maximal activity concentration) [8]: Inactive; CYP2C19 AC50 (half-maximal activity concentration) [6]: Inactive
COc1ccc(C(=O)c2ccc(C)cc2)c(O)c1 [Mexenone] | 56.1 µM | 14.7 µM | 6.22 µM | 16.1 µM | 5.89 µM | – | –
O=C1NC2CCCCN2C12CCN(CCCN1c3ccccc3CCc3ccc(Cl)cc31)CC2 (stereo not shown) [Mosapramine] | 6.53 µM | – | 6.79 µM | – | – | Inactive | CYP2C9 AC50 (half-maximal activity concentration) [8]: Inconclusive inhibitor; CYP2C19 AC50 (half-maximal activity concentration) [6]: Inconclusive inhibitor
CN(C/C=C/c1ccccc1)Cc1cccc2ccccc12 [Naftifine hydrochloride] | 1.06 µM | 12.5 µM | 12.4 µM | 12.5 µM | 5.52 µM | – | –
OC1(c2ccc(Cl)c(C(F)(F)F)c2)CCN(CCCC(c2ccc(F)cc2)c2ccc(F)cc2)CC1 [Penfluridol] | – | – | – | – | – | – | AC50 [1]: 5.85 ± 1.65 µM; AC50 [2]: 10.3 ± 1.85 µM; AC50 [3]: 2.39 ± 0.41 µM; AC50 [4]: 29.9 ± 4.12 µM; AC50 [5]: 16.6 ± 4.88 µM
CC1(C)C(C=C(Cl)Cl)C1C(=O)OCc1cccc(Oc2ccccc2)c1 (stereo not shown) [Permethrin] | 27.5 µM | 11.2 µM | 10.9 µM | – | 5.91 µM | – | –
CN1CCC(=C2c3ccccc3Sc3ccccc32)CC1 [Pimethixene maleate] | 3.22 µM | – | 16.1 µM | – | 21.7 µM | Inactive | CYP2C9 AC50 (half-maximal activity concentration) [8]: Inactive
CCCSP(=O)(OCC)Oc1ccc(Br)cc1Cl (stereo not shown) [Profenofos] | 13.8 µM | 9.76 µM | 3.25 µM | 4.52 µM | 4.22 µM | – | –
CC(=O)[C@H]1CC[C@H]2[C@@H]3CCC4=CC(=O)CC[C@]4(C)[C@H]3CC[C@]12C [Progesterone] | 47.7 µM | 26.5 µM | 2.35 µM | 29.9 µM | 4.06 µM | – | –
CCOC(=O)C(C)Oc1ccc(Oc2cnc3cc(Cl)ccc3n2)cc1 (stereo not shown) [Quizalofop-ethyl] | 42.5 µM | 17.4 µM | 12.3 µM | 36.3 µM | 36.2 µM | – | –
Oc1c(Cl)c(Cl)c(Cl)c(Cl)c1Cl [Sodium pentachlorophenate] | 2.15 µM | – | 71 µM | 73.9 µM | – | – | CYP2C19 AC50 (half-maximal activity concentration) [6]: Inactive
COP(=O)(OC)OC(=CCl)c1cc(Cl)c(Cl)cc1Cl [Tetrachlorovinphos] | 33.7 µM | 29 µM | 3.72 µM | 3 µM | 6.81 µM | – | –
c1ccc(P(c2ccccc2)c2ccccc2)cc1 [Triphenylphosphine] | 35.7 µM | 7.13 µM | 36.2 µM | – | 8.69 µM | Inactive | –
